Results from patent US8802673B2, “Heterocyclic amine derivatives” (Hoffmann-La Roche Inc, priority 2011, dated 2014).
Counter-ions that a name gives are not always drawn.

What was measured:
[1] = target: rat TAAR1 (Rattus norvegicus (Rat), UniProt Q923Y9); assay: Radioligand binding assay on rat TAAR1; conditions: rat TAAR1 (second value of the cell), HEK-293 membranes; read-out: Ki (μM) mouse/rat
Experimental: (§1) Construction of TAAR Expression Plasmids and Stably Transfected Cell Lines
(§2) For the construction of expression plasmids the coding sequences of human, rat and mouse TAAR 1 were amplified from genomic DNA essentially as described by Lindemann et al.. The Expand High Fidelity PCR System (Roche Diagnostics) was used with 1.5 mM Mg^2+ and purified PCR products were cloned into pCR2.1-TOPO cloning vector (Invitrogen) following the instructions of the manufacturer. PCR products were subcloned into the pIRESneo2 vector (BD Clontech, Palo Alto, Calif.), and expression vectors were sequence verified before introduction in cell lines.
(§3) HEK293 cells (ATCC #CRL-1573) were cultured essentially as described by Lindemann et al. (2005). For the generation of stably transfected cell lines HEK293 cells were transfected with the pIRESneo2 expression plasmids containing the TAAR coding sequences (described above) with Lipofectamine 2000 (Invitrogen) according to the instructions of the manufacturer, and 24 hrs post transfection the culture medium was supplemented with 1 mg/ml G418 (Sigma, Buchs, Switzerland). After a culture period of about 10 d clones were isolated, expanded and tested for responsiveness to trace amines (all compounds purchased from Sigma) with the cAMP Biotrak Enzyme immunoassay (EIA) System (Amersham) following the non-acetylation EIA procedure provided by the manufacturer.
Radioligand Binding Assay on Rat TAAR1
Membrane Preparation and Radioligand Binding
(§4) HEK-293 cells stably expressing rat TAAR1 were maintained at 37° C. and 5% CO2 in DMEM high glucose medium, containing fetal calf serum (10%, heat inactivated for 30 min at 56° C.), penicillin/streptomycin (1%), and 375 μg/ml geneticin (Gibco). Cells were released from culture flasks using trypsin/EDTA, harvested, washed twice with ice-cold PBS (without Ca^2+ and Mg^2+), pelleted at 1,000 rpm for 5 min at 4° C., frozen and stored at −80° C. Frozen pellets were suspended in 20 ml HEPES-NaOH (20 mM, pH 7.4) containing 10 mM EDTA and homogenized with a Polytron (PT 6000, Kinematica) at 14,000 rpm for 20 s. The homogenate was centrifuged at 48,000×g for 30 min at 4° C. Subsequently, the supernatant was removed and discarded, and the pellet resuspended in 20 ml HEPES-NaOH (20 mM, pH 7.4) containing 0.1 mM EDTA using the Polytron (20 s at 14,000 rpm). This procedure was repeated and the final pellet resuspended in HEPES-NaOH containing 0.1 mM EDTA and homogenized using the Polytron. Typically, aliquots of 2 ml membrane portions were stored at −80° C. With each new membrane batch the dissociation constant (Kd) was determined via a saturation curve. […] All compounds were tested at a broad range of concentrations (10 pM to 10 μM) in duplicates. […] The 96 deep well plates were incubated for 1 hr at 4° C. Incubations were terminated by rapid filtration through Unifilter-96 plates (Packard Instrument Company) and glass filters GF/C (Perkin Elmer) presoaked for 1 hr in polyethylenimine (0.3%) and washed 3 times with 1 ml of cold binding buffer. After addition of 45 μl of Microscint 40 (PerkinElmer) the Unifilter-96 plate was sealed and after 1 hr the ratioactivity counted using a TopCount Microplate Scintillation Counter (Packard Instrument Company).

[2] = target: mouse TAAR1 (Mus musculus (Mouse), UniProt Q923Y8); assay: Radioligand binding assay on mouse TAAR1; conditions: mouse TAAR1 (first value of the cell), HEK-293 membranes; read-out: Ki (μM) mouse/rat
Experimental: as §1, §2, §3
Radioligand Binding Assay on Mouse TAAR1
Membrane Preparation and Radioligand Binding.
as §4, with “expressing mouse” for “expressing rat”

Sequence of mouse TAAR1 (Q923Y8 whole entry): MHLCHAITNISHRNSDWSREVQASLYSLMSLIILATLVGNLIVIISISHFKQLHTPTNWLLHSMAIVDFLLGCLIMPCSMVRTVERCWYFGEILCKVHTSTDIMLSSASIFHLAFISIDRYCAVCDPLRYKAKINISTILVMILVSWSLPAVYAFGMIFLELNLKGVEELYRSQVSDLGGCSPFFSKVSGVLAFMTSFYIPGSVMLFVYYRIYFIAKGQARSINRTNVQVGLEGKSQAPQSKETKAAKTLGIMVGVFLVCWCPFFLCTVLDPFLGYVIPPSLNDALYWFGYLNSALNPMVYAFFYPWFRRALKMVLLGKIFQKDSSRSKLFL
Sequence of rat TAAR1 (Q923Y9 whole entry): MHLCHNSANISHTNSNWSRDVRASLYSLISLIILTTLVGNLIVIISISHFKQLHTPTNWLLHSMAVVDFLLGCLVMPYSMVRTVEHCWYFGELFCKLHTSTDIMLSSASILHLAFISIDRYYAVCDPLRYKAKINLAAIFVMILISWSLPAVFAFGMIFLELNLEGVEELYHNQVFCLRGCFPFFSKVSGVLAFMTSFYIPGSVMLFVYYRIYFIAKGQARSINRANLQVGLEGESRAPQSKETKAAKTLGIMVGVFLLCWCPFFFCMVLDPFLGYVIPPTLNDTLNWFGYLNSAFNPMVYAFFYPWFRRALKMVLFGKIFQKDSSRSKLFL

Row | SMILES | Ki [1] [µM] | Ki [2] [µM]
1 | Cc1cc([C@@H]2CNCCO2)ccc1Nc1ncc(C2CC2)cn1 [Example 110, (5-Cyclopropyl-pyrimidin-2-yl)-((R)-2-methyl-4-morpholin-2-yl-phenyl)-amine] | 0.0306 | –
2 | c1ccc2nc(Nc3ccc([C@H]4CNCCO4)cc3)ccc2c1 [Example 46, ((S)-4-Morpholin-2-yl-phenyl)-quinolin-2-yl-amine] | 0.0643 | 0.0008
3 | Cc1cc(C)nc(Nc2ccc(C3CCNC3)cc2)n1 (racemic) [Example 1, (RS)-(4,6-Dimethyl-pyrimidin-2-yl)-(4-pyrrolidin-3-yl-phenyl)-amine; hydrochloride] | 1.51 | 0.074
4 | c1coc(-c2cnc(Nc3ccc([C@@H]4CNCCO4)cc3)nc2)c1 [Example 148, (5-Furan-2-yl-pyrimidin-2-yl)-((R)-4-morpholin-2-yl-phenyl)-amine] | 0.0083 | 0.0017
5 | FC(F)(F)c1cnc(Nc2ccc([C@@H]3CNCCO3)cc2)cn1 [Example 201, (R)—N-(4-(Morpholin-2-yl)phenyl)-5-(trffluoromethyl)pyrazin-2-amine] | 0.0626 | 0.008
6 | c1cc([C@H]2CNCCO2)ccc1Nc1ncc(C2CC2)cn1 [Example 17, (5-Cyclopropyl-pyrimidin-2-yl)-((S)-4-morpholin-2-yl-phenyl)-amine] | 0.0131 | 0.0017
7 | Fc1cnc(Nc2ccc([C@H]3CNCCO3)cc2)nc1 [Example 14, (5-Fluoro-pyrimidin-2-yl)-((S)-4-morpholin-2-yl-phenyl)-amine] | 0.504 | 0.0122
8 | N#Cc1cnc(Nc2ccc([C@H]3CNCCO3)cc2)nc1 [Example 16, 2-((S)-4-Morpholin-2-yl-phenylamino)-pyrimidine-5-carbonitrile] | 0.448 | 0.0276
9 | Fc1cc([C@@H]2CNCCO2)ccc1Nc1ncc(Br)cn1 [Example 126, (5-Bromo-pyrimidin-2-yl)-((R)-2-fluoro-4-morpholin-2-yl-phenyl)-amine] | 0.0096 | –
10 | Brc1cnc(Nc2ccc([C@@H]3CNCCO3)cc2)nc1 [Example 94, (5-Bromo-pyrimidin-2-yl)-((R)-4-morpholin-2-yl-phenyl)-amine] | 0.0489 | –
11 | Brc1ccc(Nc2ccc([C@H]3CNCCO3)cn2)nc1 [Example 109, (S)-5-Bromo-N-(5-(morpholin-2-yl)pyridin-2-yl)pyridin-2-amine] | 0.362 | –
12 | Brc1ccc(Nc2ccc([C@@H]3CNCCO3)cn2)nc1 [Example 108, (R)-5-Bromo-N-(5-(morpholin-2-yl)pyridin-2-yl)pyridin-2-amine] | 0.216 | –
13 | c1cc(Nc2ccc(C3CNCCO3)cc2)[nH]n1 (racemic) [Example 155, (RS)-(4-Morpholin-2-yl-phenyl)-(1H-pyrazol-3-yl)-amine] | – | 0.6
14 | Cc1cc([C@H]2CNCCO2)ccc1Nc1ncc(C2CC2)cn1 [Example 111, (5-Cyclopropyl-pyrimidin-2-yl)-((S)-2-methyl-4-morpholin-2-yl-phenyl)-amine] | 0.0322 | –
15 | Fc1cc([C@H]2CNCCO2)ccc1Nc1ncc(Br)cn1 [Example 127, (5-Bromo-pyrimidin-2-yl)-((S)-2-fluoro-4-morpholin-2-yl-phenyl)-amine] | 0.0165 | –

Now from value to compound:

Row | Ki [1] [µM] | Ki [2] [µM] | SMILES
16 | 0.0608 | 0.005 | Clc1ccc2ncnc(Nc3ccc([C@H]4CNCCO4)cc3)c2c1 [Example 50, (S)-6-Chloro-N-(4-(morpholin-2-yl)phenyl)quinazolin-4-amine]
17 | 0.235 | 0.0079 | c1ccc(-c2nnc(Nc3ccc([C@H]4CNCCO4)cc3)o2)cc1 [Example 115, (S)—N-(4-(Morpholin-2-yl)phenyl)-5-phenyl-1,3,4-oxadiazol-2-amine]
18 | 0.174 | 0.0094 | COc1cc(OC)nc(Nc2ccc([C@@H]3CNCCO3)cc2)n1 [Example 183, (4,6-Dimethoxy-pyrimidin-2-yl)-((R)-4-morpholin-2-yl-phenyl)-amine]
19 | 0.0017 | 0.0022 | FC(F)(F)COc1cnc(Nc2ccc([C@@H]3CNCCO3)c(Cl)c2)nc1 [Example 203, ((R)-3-Chloro-4-morpholin-2-yl-phenyl)-[5-(2,2,2-trifluoro-ethoxy)-pyrimidin-2-yl]-amine]
20 | 0.34 | 0.011 | c1cc([C@H]2CNCCO2)ccc1Nc1ccc(C2COC2)cn1 [Example 165, ((S)-4-Morpholin-2-yl-phenyl)-(5-oxetan-3-yl-pyridin-2-yl)-amine]
21 | 0.0517 | 0.0047 | FC(F)Oc1cnc(Nc2ccc([C@@H]3CNCCO3)cc2)nc1 [Example 179, (R)-5-(Difluoromethoxy)-N-(4-(morpholin-2-yl)phenyl)pyrimidin-2-amine]
22 | 0.0628 | 0.0088 | FC(F)Oc1cnc(Oc2cnc(Nc3ccc([C@@H]4CNCCO4)cc3)nc2)nc1 [Example 174, (R)-5-(5-(Difluoromethoxy)pyrimidin-2-yloxy)-N-(4-(morpholin-2-yl)phenyl)pyrimidin-2-amine]
23 | 0.033 | 0.0058 | COc1cc(Cl)nc(Nc2ccc([C@@H]3CNCCO3)cc2)n1 [Example 180, (4-Chloro-6-methoxy-pyrimidin-2-yl)-((R)-4-morpholin-2-yl-phenyl)-amine]
24 | 0.284 | 0.418 | Cn1cc(Br)c(Nc2ccc(C3CNCCO3)cc2)n1 (racemic) [Example 143, (RS)-(4-Bromo-1-methyl-1H-pyrazol-3-yl)-(4-morpholin-2-yl-phenyl)-amine]
25 | 1.85 | 1.02 | CNC(=O)c1cnc(Nc2ccc([C@H]3CNCCO3)cc2)nc1 [Example 158, 2-((S)-4-Morpholin-2-yl-phenylamino)-pyrimidine-5-carboxylic acid methylamide]
26 | 0.28 | 0.0363 | Clc1nc2ccccc2cc1CNc1ccc([C@H]2CNCCO2)cc1 [Example 51, (S)—N-((2-Chloroquinolin-3-yl)methyl)-4-(morpholin-2-yl)aniline]
27 | 0.0051 | – | Fc1cc([C@H]2CNCCO2)ccc1Nc1ncc(C2CC2)cn1 [Example 119, (5-Cyclopropyl-pyrimidin-2-yl)-((S)-2-fluoro-4-morpholin-2-yl-phenyl)-amine]
28 | 0.0185 | – | Fc1cc(C2CNCCO2)ccc1Nc1ccc(Cl)cn1 (racemic) [Example 99, (RS)-5-Chloro-N-(2-fluoro-4-(morpholin-2-yl)phenyl)pyridin-2-amine]
29 | 0.003 | – | Fc1cc([C@@H]2CNCCO2)ccc1Nc1ncc(C2CC2)cn1 [Example 118, (5-Cyclopropyl-pyrimidin-2-yl)-((R)-2-fluoro-4-morpholin-2-yl-phenyl)-amine]
